{
  "source": "patent US12343326B2",
  "about": "“Psychoactive medicines and their use for treating psychiatric and neurological conditions and disorders” (Transcend Therapeutics, Inc., priority 2021, dated 2025)",
  "experiment_in_all_cases": "β-arrestin based GPCR screen (PathHunter / GPCRmax), antagonist mode",
  "key": {"168 GPCRs [1]": {"target": "168 GPCRs (Homo sapiens, UniProt P18825)", "sequence (P18825 whole entry)": "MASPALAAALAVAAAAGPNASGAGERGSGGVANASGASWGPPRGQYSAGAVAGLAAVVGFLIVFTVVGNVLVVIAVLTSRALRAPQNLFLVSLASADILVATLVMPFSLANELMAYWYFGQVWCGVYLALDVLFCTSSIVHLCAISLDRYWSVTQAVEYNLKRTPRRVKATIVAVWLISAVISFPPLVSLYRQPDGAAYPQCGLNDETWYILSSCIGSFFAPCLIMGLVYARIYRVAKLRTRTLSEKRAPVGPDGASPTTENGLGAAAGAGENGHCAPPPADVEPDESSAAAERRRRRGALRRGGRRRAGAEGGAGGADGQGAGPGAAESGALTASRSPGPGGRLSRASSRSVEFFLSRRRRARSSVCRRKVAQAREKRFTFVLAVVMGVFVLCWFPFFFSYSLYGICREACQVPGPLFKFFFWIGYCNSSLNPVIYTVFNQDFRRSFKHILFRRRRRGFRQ", "conditions": "ADRA2C, Antagonist"}, "168 GPCRs [2]": {"target": "168 GPCRs (Homo sapiens, UniProt P21730)", "sequence (P21730 whole entry)": "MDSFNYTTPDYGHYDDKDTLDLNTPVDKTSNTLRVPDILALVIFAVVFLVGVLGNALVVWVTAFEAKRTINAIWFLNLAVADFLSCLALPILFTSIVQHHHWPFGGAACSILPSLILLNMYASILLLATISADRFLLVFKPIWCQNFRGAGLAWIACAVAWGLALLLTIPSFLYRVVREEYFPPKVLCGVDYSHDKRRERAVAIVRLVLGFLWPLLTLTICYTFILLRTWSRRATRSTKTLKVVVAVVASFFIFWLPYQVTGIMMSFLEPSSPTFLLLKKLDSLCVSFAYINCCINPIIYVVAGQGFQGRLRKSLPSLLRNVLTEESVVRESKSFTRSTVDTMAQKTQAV", "conditions": "C5AR1, Antagonist"}, "168 GPCRs [3]": {"target": "168 GPCRs (Homo sapiens, UniProt Q13324)", "sequence (Q13324 whole entry)": "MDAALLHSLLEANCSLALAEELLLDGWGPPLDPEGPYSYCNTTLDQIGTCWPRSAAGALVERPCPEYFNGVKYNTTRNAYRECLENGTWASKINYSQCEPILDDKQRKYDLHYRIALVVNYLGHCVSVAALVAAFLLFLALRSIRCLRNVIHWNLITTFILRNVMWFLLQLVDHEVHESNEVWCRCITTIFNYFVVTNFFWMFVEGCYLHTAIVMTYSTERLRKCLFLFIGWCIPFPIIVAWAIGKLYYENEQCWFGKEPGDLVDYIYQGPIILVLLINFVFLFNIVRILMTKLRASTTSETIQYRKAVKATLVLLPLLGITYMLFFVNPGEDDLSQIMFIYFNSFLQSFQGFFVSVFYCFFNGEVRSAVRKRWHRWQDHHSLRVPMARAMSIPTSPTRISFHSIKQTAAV"}, "168 GPCRs [4]": {"target": "168 GPCRs (Homo sapiens, UniProt P48546)", "sequence (P48546 22-466)": "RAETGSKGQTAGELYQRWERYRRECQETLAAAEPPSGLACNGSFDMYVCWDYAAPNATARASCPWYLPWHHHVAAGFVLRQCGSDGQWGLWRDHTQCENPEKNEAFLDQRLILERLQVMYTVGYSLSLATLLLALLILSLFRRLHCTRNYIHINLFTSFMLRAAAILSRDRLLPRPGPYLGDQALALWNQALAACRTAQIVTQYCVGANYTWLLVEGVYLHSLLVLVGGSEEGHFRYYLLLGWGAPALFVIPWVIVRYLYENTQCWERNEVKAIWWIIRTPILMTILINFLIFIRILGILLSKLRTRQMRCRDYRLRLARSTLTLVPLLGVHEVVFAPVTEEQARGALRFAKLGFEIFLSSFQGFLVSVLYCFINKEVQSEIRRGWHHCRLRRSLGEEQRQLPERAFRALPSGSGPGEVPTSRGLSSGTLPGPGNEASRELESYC", "conditions": "GIPR"}},
  "data": [
    {"smiles": "CNC(C)C(=O)c1ccc2c(c1)OCO2", "note": "(centres unmarked) [methylone, 3,4-methylenedioxy-N-methylcathinone]", "values": [
      {"measurement": "activity at 1 µM", "setting": "168 GPCRs [1]; 1 uM", "result": -4.3, "unit": "%"},
      {"measurement": "activity at 10 µM", "setting": "168 GPCRs [1]; 10 uM", "result": 17.6, "unit": "%"},
      {"measurement": "activity at 1 µM", "setting": "168 GPCRs [2]; 1 uM", "result": 8.9, "unit": "%"},
      {"measurement": "activity at 10 µM", "setting": "168 GPCRs [2]; 10 uM", "result": 5, "unit": "%"},
      {"measurement": "activity at 10 µM", "setting": "168 GPCRs [3]; CRHR2, Antagonist mode, 10 uM", "result": -0.3, "unit": "%"},
      {"measurement": "activity at 1 µM", "setting": "168 GPCRs [3]; CRHR2, Antagonist, 1 uM", "result": -2, "unit": "%"},
      {"measurement": "activity at 10 µM", "setting": "168 GPCRs [4]; Antagonist mode, 10 uM", "result": -5.1, "unit": "%"},
      {"measurement": "activity at 1 µM", "setting": "168 GPCRs [4]; Antagonist, 1 uM", "result": -1, "unit": "%"}
    ]}
  ]
}
